Like-named read-outs stand apart in the source and are kept apart here.
What was measured:
[1] = target: T1, CB1 receptor (Homo sapiens, UniProt P21554); test: Binding assay for CB1 agonists or inverse agonists (SK-N-MC membranes, [3H]-CP-55,940); conditions: for IC50: Cannabinoid CB1 Receptor Binding IC50, calculated by linear regression from percent inhibition at various test concentrations; for inhibition at 0.015 µM: read-out: CB1 receptor binding percent inhibition, test concentration 0.015 μM (footnote 7); for inhibition at 0.25 µM: read-out: CB1 receptor binding percent inhibition, test concentration 0.25 μM (footnote 8); for inhibition at 1 µM: read-out: CB1 receptor binding percent inhibition, test concentration 1 μM (footnote 1); for inhibition at 0.2 µM: read-out: CB1 receptor binding percent inhibition, test concentration 0.2 μM (footnote 2)
T1 construct: expressed in transfected cells
Procedure, shortened: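 Membranes from SK-N-MC cells stably expressing human CB1 incubated with compound and [3H]-CP-55,940 ([…]) for 90 min at 30° C in Tris-HCl pH 7.5, MgCl2, EDTA, fatty-acid-free BSA. Non-specific binding defined with 10 uM WIN 55,212; filtration, scintillation count; IC50 by linear regression.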

[2] = target: T2, CB2 receptor (Homo sapiens, UniProt P34972); test: Binding assay for CB2 agonists or inverse agonists (SK-N-MC membranes, [3H]-CP-55,940); conditions: for inhibition at 0.25 µM: read-out: CB2 receptor binding percent inhibition, test concentration 0.25 μM (footnote 8); for CB2 receptor binding percent inhibition: test concentration not stated
T2 construct: expressed in transfected cells
Procedure, shortened: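 Membranes from SK-N-MC cells stably expressing human CB2 were incubated with radioligand and test compounds for 90 min at 30 °C in Tris-HCl buffer, pH 7.5, with MgCl2, EDTA and fatty-acid-free BSA. Filter-bound radioactivity was counted; IC50 was derived by linear regression of percent inhibition.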

[3] = target: T1, CB1 receptor; test: cell-based; conditions: SK-N-MC cells
Text: The CB1 and CB2 receptors are G-protein coupled receptors (GPCR), which influence cell function via the Gi-protein. These receptors modulate the activity of intracellular adenylate cyclase, which in turn produces the intracellular signal messenger cyclic-AMP (cAMP).
At baseline, or during non-ligand bound conditions, these receptors are constitutively active and tonically suppress adenylate cyclase activity. The binding of an agonist causes further receptor activation and produces additional suppression of adenylate cyclase activity. The binding of an inverse agonist inhibits the constitutive activity of the receptors and results in an increase in adenylate cyclase activity.
By monitoring intracellular adenylate cyclase activity, the ability of compounds to act as agonists or inverse agonists can be determined.
Test compounds were evaluated in SK-N-MC cells which, using standard transfection procedures, were stably transfected with human cDNA for pcDNA3-CRE β-gal and pcDNA3 CB1 receptor (human) or pcDNA3 CB2 receptor (human). By expressing CRE β-gal, the cells produced β-galactosidase in response to CRE promoter activation by cAMP. Cells expressing CRE β-gal and either the human CB1 or CB2 receptor will produce less β-galactosidase when treated with a CB1/CB2 agonist and will produce more β-galactosidase when treated with a CB1/CB2 inverse agonist.
The cells were grown in 96-well plates under standard cell culture conditions at 37° C. in a 5% CO2 atmosphere and culture media (wherein the media was supplemented with 2 mM L-glutamine, […] sodium pyruvate, 10% FBS (fetal bovine serum) and antibiotics).
The change in forskolin induced β-galactosidase activity was determined by setting a vehicle treated cell's activity value at 100% and expressing the β-galactosidase activity measured in a corresponding compound treated cell as a percent of the vehicle treated cell activity.
The EC50 value for functional activity for compounds tested was calculated by linear regression and was obtained from studies in which varying compound concentrations were used.
Where an EC50 value was not obtained for a test compound, the value shown (in %) represents change in functional activity and was obtained from a study in which one compound concentration was used.

[4] = CB1 Receptor Functional Inverse Agonist EC50, forskolin induced β-galactosidase activity
[5] = read-out: CB2 receptor binding percent inhibition, test concentration 0.2 μM (footnote 2)
[6] = test concentration 0.2 μM (footnote 2), read-out: CB2 receptor binding percent inhibition

T1 sequence (P21554 whole entry): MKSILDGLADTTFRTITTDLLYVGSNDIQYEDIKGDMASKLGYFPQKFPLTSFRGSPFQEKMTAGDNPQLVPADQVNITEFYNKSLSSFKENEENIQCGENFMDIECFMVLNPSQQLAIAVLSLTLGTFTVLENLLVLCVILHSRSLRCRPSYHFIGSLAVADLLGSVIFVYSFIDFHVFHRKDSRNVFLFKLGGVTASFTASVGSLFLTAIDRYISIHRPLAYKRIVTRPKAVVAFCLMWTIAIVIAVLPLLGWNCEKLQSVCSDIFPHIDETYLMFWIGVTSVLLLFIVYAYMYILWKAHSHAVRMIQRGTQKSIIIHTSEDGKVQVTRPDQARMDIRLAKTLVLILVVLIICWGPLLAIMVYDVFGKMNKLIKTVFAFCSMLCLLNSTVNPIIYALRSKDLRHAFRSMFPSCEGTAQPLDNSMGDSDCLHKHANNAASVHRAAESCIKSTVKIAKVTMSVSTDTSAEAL
T2 sequence (P34972 whole entry): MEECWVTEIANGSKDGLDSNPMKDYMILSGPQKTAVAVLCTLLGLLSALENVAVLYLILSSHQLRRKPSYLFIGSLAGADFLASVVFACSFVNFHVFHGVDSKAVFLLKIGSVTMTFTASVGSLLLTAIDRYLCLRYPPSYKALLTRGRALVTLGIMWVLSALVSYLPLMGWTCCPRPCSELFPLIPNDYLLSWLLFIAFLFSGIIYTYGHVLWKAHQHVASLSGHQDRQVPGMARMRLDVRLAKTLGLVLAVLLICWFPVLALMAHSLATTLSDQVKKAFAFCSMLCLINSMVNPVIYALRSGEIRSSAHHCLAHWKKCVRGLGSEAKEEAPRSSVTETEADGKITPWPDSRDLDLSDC

Compound: C[C@@H](NC(=O)c1nn(-c2ccc(Cl)cc2Cl)c2c1CCCC/C2=C\c1ccc(Cl)cc1)c1ccccc1 [Cpd 131, (8E)-8-(4-chloro-benzylidene)-1-(2,4-dichloro-phenyl)-1,4,5,6,7,8-hexahydro-cycloheptapyrazole-3-carboxylic acid [(1R)-1-phenyl-ethyl]-amide]
- IC50 [1]: 6 nM
- inhibition at 0.015 µM [1]: 53%
- inhibition at 0.25 µM [1]: 93%
- inhibition at 0.25 µM [2]: 34%
- EC50 [3, 4]: < 30 nM

Compound: C[C@H](NS(=O)(=O)/C=C/c1nn(-c2ccc(Cl)cc2Cl)c2c1CCCCC2Cc1cccc(Cl)c1)c1ccccc1 (stereo partly drawn) [Cpd 3, (2E)-2-[8-(3-chloro-benzyl)-1-(2,4-dichloro-phenyl)-1,4,5,6,7,8-hexahydro-cycloheptapyrazol-3-yl]-ethenesulfonic acid [(1S)-1-phenyl-ethyl]-amide]
- IC50 [1]: 1300 nM
- inhibition at 1 µM [1]: 60%
- CB2 receptor binding percent inhibition [2]: 26%
- EC50 [3, 4]: 70 nM

Compound: O=C(NN1CCCCC1)c1nn(-c2ccc(Cl)cc2Cl)c2c1CCCC/C2=C\c1ccc(F)cc1 [Cpd 150, (8E)-1-(2,4-dichloro-phenyl)-8-(4-fluoro-benzylidene)-1,4,5,6,7,8-hexahydro-cycloheptapyrazole-3-carboxylic acid piperidin-1-ylamide]
- IC50 [1]: 100 nM
- inhibition at 0.2 µM [1]: 65%
- inhibition at 0.2 µM [2, 5]: 3%
- EC50 [3, 4]: 20 nM

Compound: O=C(NC1CCCc2ccccc21)c1nn(-c2ccc(Cl)cc2Cl)c2c1CCCC/C2=C\c1ccc(F)cc1 (stereo not drawn) [Cpd 209, (8E)-1-(2,4-dichloro-phenyl)-8-(4-fluoro-benzylidene)-1,4,5,6,7,8-hexahydro-cycloheptapyrazole-3-carboxylic acid (1,2,3,4-tetrahydro-naphthalen-1-yl)-amide]
- IC50 [1]: 30 nM
- inhibition at 0.2 µM [1]: 88%
- inhibition at 0.2 µM [2, 5]: 8%
- EC50 [3, 4]: 10 nM

Compound: COc1ccc(/C=C2\CCCCc3c(C(=O)NN4CCCCC4)nn(-c4ccc(Cl)cc4Cl)c32)cc1 [Cpd 217, (8E)-1-(2,4-dichloro-phenyl)-8-(4-methoxy-benzylidene)-1,4,5,6,7,8-hexahydro-cycloheptapyrazole-3-carboxylic acid piperidin-1-ylamide]
- IC50 [1]: 60 nM
- inhibition at 0.2 µM [1]: 75%
- inhibition at 0.2 µM [2, 5]: 52%
- EC50 [3, 4]: 20 nM

Compound: COc1ccc(/C=C2\CCCCc3c(C(=O)N[C@H](CO)c4ccccc4)nn(-c4ccc(Cl)cc4Cl)c32)cc1 [Cpd 215, (8E)-1-(2,4-dichloro-phenyl)-8-(4-methoxy-benzylidene)-1,4,5,6,7,8-hexahydro-cycloheptapyrazole-3-carboxylic acid [(1S)-2-hydroxy-1-phenyl-ethyl]-amide]
- IC50 [1]: 10 nM
- inhibition at 0.2 µM [1]: 88%
- inhibition at 0.2 µM [2, 5]: 24%
- EC50 [3, 4]: 10 nM

Compound: O=C(NCc1ccc(C(F)(F)F)cc1)c1nn(-c2ccc(Cl)cc2Cl)c2c1CCCCC2Cc1ccc(Cl)cc1 (stereo not drawn) [Cpd 26, 8-(4-chloro-benzyl)-1-(2,4-dichloro-phenyl)-1,4,5,6,7,8-hexahydro-cycloheptapyrazole-3-carboxylic acid 4-trifluoromethyl-benzylamide]
- inhibition at 1 µM [1]: 70%
- inhibition at 2 µM ([1]; read-out: CB1 receptor binding percent inhibition, test concentration 2 μM (footnote 6)): 55%
- CB1 receptor binding percent inhibition ([1]; test concentration not stated): 63%
- inhibition at 1 µM ([2]; test concentration 1 μM (footnote 1), read-out: CB2 receptor binding percent inhibition): 35%
- inhibition at 2 µM ([2]; test concentration 2 μM (footnote 6), read-out: CB2 receptor binding percent inhibition): 22%
- CB2 receptor binding percent inhibition [2]: 29%
- EC50 ([3]; forskolin induced β-galactosidase activity, read-out: CB1 Receptor Functional Inverse Agonist EC50): 600 nM

Compound: CC(NC(=O)c1nn(-c2ccc(Cl)cc2Cl)c2c1CCCC/C2=C\c1ccc(F)cc1)c1ccccn1 (stereo not drawn) [Cpd 224, (8E)-1-(2,4-dichloro-phenyl)-8-(4-fluoro-benzylidene)-1,4,5,6,7,8-hexahydro-cycloheptapyrazole-3-carboxylic acid (1-pyridin-2-yl-ethyl)-amide]
- IC50 [1]: 8 nM
- inhibition at 0.2 µM [1]: 87%
- inhibition at 0.2 µM [2, 5]: 4%
- EC50 [3, 4]: 4 nM

Compound: CC(NC(=O)c1nn(-c2ccc(Cl)cc2Cl)c2c1CCCC/C2=C\c1ccc(Cl)cc1)c1ccc(Cl)cc1 (stereo not drawn) [Cpd 137, (8E)-8-(4-chloro-benzylidene)-1-(2,4-dichloro-phenyl)-1,4,5,6,7,8-hexahydro-cycloheptapyrazole-3-carboxylic acid [1-(4-chloro-phenyl)-ethyl]-amide]
- IC50 [1]: 10 nM
- inhibition at 0.015 µM [1]: 57%
- inhibition at 0.25 µM [1]: 77%
- inhibition at 0.25 µM [2]: 0%
- EC50 [3, 4]: 30 nM

Compound: COc1ccc(/C=C2\CCCCc3c(C(=O)NN4CC5CCCC5C4)nn(-c4ccc(Cl)cc4Cl)c32)cc1 (stereo not drawn) [Cpd 226, (8E)-1-(2,4-dichloro-phenyl)-8-(4-methoxy-benzylidene)-1,4,5,6,7,8-hexahydro-cycloheptapyrazole-3-carboxylic acid (hexahydro-cyclopenta[c]pyrrol-2-yl)-amide]
- IC50 [1]: 40 nM
- inhibition at 0.2 µM [1]: 72%
- inhibition at 0.2 µM [2, 5]: 48%
- EC50 [3, 4]: 3 nM

Compound: NS(=O)(=O)c1ccc(CNC(=O)c2nn(-c3ccc(Cl)cc3Cl)c3c2CCCC/C3=C\c2ccc(Cl)cc2)cc1 [Cpd 135, (8E)-8-(4-chloro-benzylidene)-1-(2,4-dichloro-phenyl)-1,4,5,6,7,8-hexahydro-cycloheptapyrazole-3-carboxylic acid 4-sulfamoyl-benzylamide]
- IC50 [1]: 50 nM
- inhibition at 0.25 µM [1]: 65%
- inhibition at 0.25 µM [2]: 25%
- EC50 [3, 4]: < 30 nM

Compound: O=C(NN1CCOCC1)c1n[nH]c2c1CCCC/C2=C\c1ccc(Cl)cc1 [Cpd 145, (8E)-8-(4-chloro-benzylidene)-1,4,5,6,7,8-hexahydro-cycloheptapyrazole-3-carboxylic acid morpholin-4-ylamide]
- inhibition at 0.2 µM [1]: 54%
- inhibition at 0.2 µM [2, 6]: 68%

Compound: O=C(NC1CCC1)c1nn(C2CCCCC2)c2c1CCCCC2Cc1ccccc1Cl (stereo not drawn) [Cpd 23, 8-(2-chloro-benzyl)-1-cyclohexyl-1,4,5,6,7,8-hexahydro-cycloheptapyrazole-3-carboxylic acid cyclobutylamide]
- inhibition at 1 µM [1]: 0%
- CB2 receptor binding percent inhibition [2]: 24%

Compound: C[C@H](NS(=O)(=O)/C=C/c1n[nH]c2c1CCCCC2Cc1cccc(Cl)c1)c1ccccc1 (stereo partly drawn) [Cpd 160, (2E)-2-[8-(3-chloro-benzyl)-1,4,5,6,7,8-hexahydro-cycloheptapyrazol-3-yl]-ethenesulfonic acid [(1S)-1-phenyl-ethyl]-amide]
- inhibition at 0.2 µM [1]: 2%
- inhibition at 0.2 µM [2, 6]: 75%

Compound: C[C@H](NC(=O)c1nn(-c2ccccc2Cl)c2c1CCCC/C2=C\c1ccc(Cl)cc1)C1CCCCC1 [Cpd 192, (8E)-8-(4-chloro-benzylidene)-1-(2-chloro-phenyl)-1,4,5,6,7,8-hexahydro-cycloheptapyrazole-3-carboxylic acid [(1S)-1-cyclohexyl-ethyl]-amide]
- inhibition at 0.2 µM [1]: 45%
- inhibition at 0.2 µM [2, 5]: 7%

Compound: C[C@@H](NS(=O)(=O)/C=C/c1n[nH]c2c1CCCC/C2=C\c1ccc(Cl)cc1)c1ccccc1 [Cpd 236, (2E,8E)-2-[8-(4-chloro-benzylidene)-1,4,5,6,7,8-hexahydro-cycloheptapyrazol-3-yl]-ethenesulfonic acid [(1R)-1-phenyl-ethyl]-amide]
- inhibition at 0.2 µM [1]: 0%
- inhibition at 0.2 µM [2, 6]: 41%

Compound: O=C(NC1CCC1)c1nn(C2CCCCC2)c2c1CCCCC2Cc1ccc(Cl)cc1 (stereo not drawn) [Cpd 37, 8-(4-chloro-benzyl)-1-cyclohexyl-1,4,5,6,7,8-hexahydro-cycloheptapyrazole-3-carboxylic acid cyclobutylamide]
- inhibition at 1 µM [1]: 15%
- CB2 receptor binding percent inhibition [2]: 10%

Compound: O=C(NN1CCOCC1)c1nn(C2CCCCC2)c2c1CCCCC2Cc1cccc(F)c1 (stereo not drawn) [Cpd 90, 1-cyclohexyl-8-(3-fluoro-benzyl)-1,4,5,6,7,8-hexahydro-cycloheptapyrazole-3-carboxylic acid morpholin-4-ylamide]
- inhibition at 1 µM [1]: 1%
- CB2 receptor binding percent inhibition [2]: 2%
